Laboratory results from US9402399B2, “Pesticidal mixtures including isoxazoline derivatives” (Syngenta Participations AG, priority 2011, dated 2016).

Test system: Tetranychus urticae
Assay: Tetranychus urticae (Two Spotted Spider Mite) contact/feeding activity, adult mortality on sprayed bean plants
Assay type: in vivo
Description: Tetranychus urticae (Two Spotted Spider Mite)
(Contact/Feeding Activity)
Bean plants are infested with mite populations of mixed ages. 1 day after infestation, plants are treated in a spray chamber with diluted test solutions. 1 and 8 days later, samples are checked for adult mortality. 2 replicates per treatment were evaluated.
Data is not shown for experiments where there was no insect mortality when the compounds were applied alone and in combination. When a compound applied alone gave no control at a particular rate, it is assumed that lower rates of that compound alone also give no control.

In the case of `CC1(C)[C@H](C(=O)O[C@H](C#N)c2cccc(Oc3ccccc3)c2)[C@@H]1/C=C(\Cl)C(F)(F)F` (racemic) [LCYH, lambda cyhalothrin], the “LCYH observed control %” value (LCYH alone 0.781 ppm) is reported as 0%, the “LCYH observed control %” value (LCYH alone 1.562 ppm) is reported as 0% and the “LCYH observed control %” value (LCYH alone 3.125 ppm) is reported as 0%. The “LCYH observed control %” value (LCYH alone 6.25 ppm) was 25%, the “LCYH observed control %” value (LCYH alone 12.5 ppm) was 75% and the “LCYH observed control %” value (LCYH alone 25 ppm) was 80%. The “LCYH observed control %” value (LCYH alone 50 ppm) was 85% and the “LCYH observed control %” value (LCYH alone 100 ppm) was 95%.
`CC(C)c1cc(Oc2ccccc2)cc(C(C)C)c1NC(=S)NC(C)(C)C` [DFN, diafenthiuron] was tested, and the “DFN observed control %” value (DFN alone 1.562 ppm) was 0%, the “DFN observed control %” value (DFN alone 3.125 ppm) was 0% and the “DFN observed control %” value (DFN alone 6.25 ppm) was 25%. The “DFN observed control %” value (DFN alone 12.5 ppm) was 60% and the “DFN observed control %” value (DFN alone 25 ppm) was 95%.
`CN1COCN(Cc2cnc(Cl)s2)/C1=N\[N+](=O)[O-]` [TMX, thiamethoxam] was tested, and the “TMX observed control %” value (TMX alone 50 ppm) was 0%, the “TMX observed control %” value (TMX alone 100 ppm) was 0% and the “TMX observed control %” value (TMX alone 200 ppm) was 0%. For the same compound, the “TMX observed control %” value (TMX alone 400 ppm) was 0%.
